Assay results from publication PMC3704178 (ACS medicinal chemistry letters, 2013).

Legend:
[1] = system: PrP^Sc level in RML prion-infected mouse neuroblastoma cells (ScN2a-cl3); type: cell-based
[2] = Microsomal stability, mouse microsomes
[3] = Microsomal stability, human microsomes

Compound: CC(=O)c1ccc(N2CCN(Cc3ccccc3)CC2)cc1 [Compound 1]
- Antiprion potency EC50 ± SEM [1]: micromolar range

Compound: CC(=O)c1ccc(N2CCN(Cc3cccnc3)CC2)cc1 [Compound 7]
- Antiprion potency EC50 ± SEM [1]: micromolar range

Compound: CC(=O)c1ccc(N2CCN(Cc3cccs3)CC2)cc1 [Compound 13]
- Antiprion potency EC50 ± SEM [1]: micromolar range

Compound: CC(=O)c1ccc(N2CCN(Cc3ccc(C)o3)CC2)cc1 [Compound 19]
- Antiprion potency EC50 ± SEM [1]: micromolar range

Compound: c1cncc(CN2CCN(c3ccc(-c4nc5ccccc5o4)cc3)CC2)c1 [Compound 41]
- Fold more potent (EC50) than furanyl 42 and thiophenyl 43 [1]: ≥ 13 fold

Compound: c1cncc(CN2CCN(c3ccc(-c4nc5ccccc5s4)cc3)CC2)c1 [Compound 44]
- Fold improvement of t1/2 in mouse microsomes compared to 41 [2]: approximately 2 fold

Compound: Fc1ccc(CN2CCN(c3ccc(-c4nc5ccccc5o4)cc3)CC2)cn1 [Compound 46]
- Fold less potent (EC50) than parent pyridine analog 41 [1]: 1.5 fold

Compound: COc1ccc(CN2CCN(c3ccc(-c4nc5ccccc5o4)cc3)CC2)cn1 [Compound 47]
- Fold less potent (EC50) than parent pyridine analog 41 [1]: 4.5 fold
- Fold improvement of t1/2 in mouse microsomes compared to 41 [2]: approximately 3 fold
- Fold increase in stability in human microsomes compared to 41 [3]: approximately 3 fold
